Experimental data taken from paper PMC6435784, “Gut Microbiota-Based Pharmacokinetics and the Antidepressant Mechanism of Paeoniflorin” (Frontiers in Pharmacology, 2019).
Where two headings read alike, the source gives them in different places.

Experiments:
depressed rats = assay: Chronic unpredictable stress depression model, sucrose preference test; type: in vivo, rat; conditions: after 2 weeks of drug treatment, compared with model group, n = 8
Protocol: Forty rats were randomly divided into the following groups (n = 8): the normal control group, the model control group, the fluoxetine group (10 mg/kg), the paeoniflorin low-dose group (10 mg/kg), and the paeoniflorin high-dose group (20 mg/kg). Except for the blank control group, the groups were randomly exposed to two stressors, including behavioral constraints, ice water swimming, electric shock, cold stimulation, clip tail, wet bedding, light/dark reversed, shaking, foods and water deprivation, continuously for 8 weeks to establish a chronic unpredictable stress model. The sucrose preference test was performed at 0 and 14 days after administration.

[1] = Pharmacokinetics of paeoniflorin in normal SD rats (plasma, LC-MS/MS); type: in vivo, rat; conditions: for MRT last: read-out: MRT (0-t); for MRT inf: read-out: MRT (0-∞); for half-life: read-out: t1/2z (converted)
Protocol: Chromatography separation was performed using an XSS T3 column (3.5 μm, 2.1 mm × 100 mm, Waters, Milford, MA, United States) with the column temperature maintained at 40°C at a flow rate of 0.4 mL/min. […] The gradient was as follows: 25% eluent B for 2 min; 25–85% B from 2 to 4 min; 85–25% B from 4 to 5 min and held at 25% from 5 to 7 min. The autosampler temperature was set to 4°C. Mass spectrometry was carried out using multiple reaction monitoring mode (MRM). […] The nebulizing gas flow rate was 2.8 L/min, the drying gas flow rate was 10 L/min, and the heating gas flow rate was 10 L/min. […] Plasma samples were immediately stored at 4°C until analysis. The method validation assays were carried out in terms of specificity, linearity, sensitivity, accuracy, precisions, recovery, matrix effect and stability. […] Statistical analyses were conducted using two-way ANOVA and Student’s t-test with GraphPad Prism Version 5 (GraphPad Software, La Jolla, CA, United States). The data are expressed as the means ± standard deviation. […] DAS 3.0 was used to calculate the plasma pharmacokinetic parameters.

[2] = Pharmacokinetics of paeoniflorin in pseudo-germ-free (PGF) rats; type: in vivo; conditions: SD, rat, oral paeoniflorin 20 mg/kg, plasma analyte = labelled substance; for AUC(0-t) / Cmax: plasma, po, 20 mg/kg
Protocol: Chromatography separation was performed using an XSS T3 column (3.5 μm, 2.1 mm × 100 mm, Waters, Milford, MA, United States) with the column temperature maintained at 40°C at a flow rate of 0.4 mL/min. […] The gradient was as follows: 25% eluent B for 2 min; 25–85% B from 2 to 4 min; 85–25% B from 4 to 5 min and held at 25% from 5 to 7 min. The autosampler temperature was set to 4°C. Mass spectrometry was carried out using multiple reaction monitoring mode (MRM). […] The nebulizing gas flow rate was 2.8 L/min, the drying gas flow rate was 10 L/min, and the heating gas flow rate was 10 L/min. […] The remaining fourteen SD rats were orally administered saline equivalently. Two days after administration, pharmacokinetic experiments were performed. […] Plasma samples were immediately stored at 4°C until analysis. Statistical analyses were conducted using two-way ANOVA and Student’s t-test with GraphPad Prism Version 5 (GraphPad Software, La Jolla, CA, United States). The data are expressed as the means ± standard deviation. […] DAS 3.0 was used to calculate the plasma pharmacokinetic parameters.

[3] = Excretion of paeoniflorin in rats (urine, feces, bile); type: in vivo, rat; conditions: for Excretion rate of paeoniflorin (%), Urine (%), cumulative / Excretion rate of paeoniflorin (%), Feces (%), cumulative: total excretion, oral 20 mg/kg
Protocol: Then, urine samples and feces samples were collected at 0, 6, 12, 24, 48, 72, and 96 h.

[4] = Brain distribution of paeoniflorin and benzoic acid in rats; type: in vivo, rat; conditions: at 2 h after oral administration of paeoniflorin 20 mg/kg
[5] = Metabolism of paeoniflorin in liver microsome in vitro; type: in vitro ADME; conditions: 5 μM paeoniflorin, 1 mg/mL protein, NADPH, 37°C, incubation 2 h
Protocol: Samples were incubated at 37°C in a shaker. The incubation mixtures were 0.2 mL of the final volume and the protein concentration was 1 mg/mL. […] The reaction was initiated by the addition of NADPH after a 3 min preincubation at 37°C. The above reactions were terminated by the addition of 0.4 mL acetonitrile (1:2). Proteins were precipitated by centrifugation at 10,625 g for 5 min, and 10 μL supernatant was injected into the UPLC system for quantification.

[6] = Metabolism of paeoniflorin in the homogenate of the liver tissue in vitro; type: in vitro ADME, rat; conditions: 100 μg/mL paeoniflorin, 37°C, 1 h, compared with intestinal bacteria incubation system, ***P < 0.001
Protocol: Fresh rat liver tissue was cut into small pieces, 0.05 M Tris-HC1 buffer (1:2, pH 7.4) was added. The mixture was homogenized in a mixer and paeoniflorin was added to the liver homogenate at a final concentration of 100 μg/mL. Then, the mixture was incubated at 37°C for 1 h. The above reactions were terminated by the addition of 0.4 mL acetonitrile (1:2). Proteins were precipitated by centrifugation at 10,625 g for 5 min, and 10 μL supernatant was injected into the UPLC system for quantification.

[7] = Excretion of paeoniflorin in rats (urine, feces, bile); type: in vivo, rat; conditions: normal rats, paeoniflorin 20 mg/kg, excreted form = labelled substance, n = 6
[8] = SD, rat, plasma, intravenous 2 mg/kg, normal rats, n = 5
[9] = SD, rat, plasma, normal rats, oral 20 mg/kg, n = 6
[10] = SD, rat, normal rats, oral paeoniflorin 20 mg/kg, plasma analyte = labelled substance, n = 6
[11] = normal rats, oral 20 mg/kg, n = 6
[12] = normal rats, oral paeoniflorin 20 mg/kg, plasma analyte = labelled substance, n = 6
[13] = PGF rats (antibiotic pretreated)
[14] = normal rats, oral paeoniflorin 20 mg/kg, excreted form = labelled substance, n = 6

Question: What does the source list for `C[C@@]12C[C@@]3(O)O[C@@H](O1)[C@]1(COC(=O)c4ccccc4)[C@H]3C[C@@]12O[C@@H]1O[C@H](CO)[C@@H](O)[C@H](O)[C@H]1O` [Paeoniflorin]?
Answer: sucrose preference value (depressed rats; 10 mg/kg): higher than that in the model group; sucrose preference value (depressed rats; 20 mg/kg): higher than that in the model group; AUC(0-t) ([1]; SD, rat, plasma, iv, 2 mg/kg, intravenous 2 mg/kg, normal rats, n = 5, read-out: AUC (0-t)): 1060 ± 326 ng·h/mL; bioavailability ([1]; SD, rat, plasma, oral, rats, oral 20 mg/kg vs intravenous 2 mg/kg, F = AUCT·Div/AUCiv·DT × 100%, read-out: absolute (oral) bioavailability): 2.32%; AUC(0-t) ([1]; SD, rat, plasma, po, 20 mg/kg, normal rats, oral paeoniflorin 20 mg/kg, plasma analyte = labelled substance, Figures 2C, 3B, 3C, read-out: AUC(0-t) (unit inferred)): 245 ng·h/mL; Cmax ([1]; SD, rat, plasma, po, 20 mg/kg, normal rats, oral paeoniflorin 20 mg/kg, plasma analyte = labelled substance, Figures 2C, 3B, 3C, read-out: Cmax (unit inferred)): 119 ng/mL; AUC(0-t) ([1]; SD, rat, plasma, po, 20 mg/kg, normal rats, oral paeoniflorin 20 mg/kg, plasma analyte = labelled substance, n = 6, read-out: AUC (0-t)): 245 ± 72.8 ng·h/mL; Cmax ([1]; SD, rat, plasma, po, 20 mg/kg, normal rats, oral paeoniflorin 20 mg/kg, plasma analyte = labelled substance, n = 6, read-out: Cmax): 119 ± 54.3 ng/mL; AUC(0-inf) [1, 8]: 1070 ± 325 ng·h/mL; clearance ([1]; SD, rat, plasma, intravenous 2 mg/kg, normal rats, n = 5, read-out: CLz (converted)): 33.3 mL/min/kg; MRT last [1, 8]: 0.903 ± 0.122 h; MRT inf [1, 8]: 0.981 ± 0.07 h; Vd ([1]; SD, rat, plasma, intravenous 2 mg/kg, normal rats, n = 5, read-out: Vz): 6.09 ± 3.11 L/kg; half-life [1, 8]: 2.06 ± 0.771 h; MRT last [1, 9]: 2 ± 0.353 h; MRT inf [1, 9]: 2.04 ± 0.368 h; AUC(0-inf) [1, 10]: 246 ± 72.8 ng·h/mL; Tmax [1, 10]: 0.458 ± 0.195 h; half-life [1, 10]: 1.3 ± 0.474 h; CLz [1, 11]: 1473 ± 483.58 mL/min/kg; Vz [1, 11]: 161.261 ± 82.928 L/kg; AUC(0-t) [1, 12]: 245.29 ± 72.811 ng·h/mL; Cmax [1, 12]: 119.36 ± 54.3 ng/mL; absolute (oral) bioavailability ([1]; rats, oral 20 mg/kg vs intravenous 2 mg/kg, F = AUCT·Div/AUCiv·DT × 100%): 2.3%; AUC(0-t) ([2]; PGF rats (antibiotic pretreated), read-out: AUC (0-t)): 296 ± 100 ng·h/mL; Cmax ([2]; PGF rats (antibiotic pretreated), read-out: Cmax): 134 ± 48.5 ng/mL; AUC(0-t) ([2]; PGF rats, Figures 3B, 3C, read-out: AUC(0-t) (unit inferred)): 296 ng·h/mL; Cmax ([2]; PGF rats, Figures 3B, 3C, read-out: Cmax (unit inferred)): 134 ng/mL; AUC(0-inf) [2, 13]: 312 ± 123 ng·h/mL; Tmax [2, 13]: 0.388 ± 0.136 h; half-life ([2]; PGF rats (antibiotic pretreated), read-out: t1/2z (converted)): 2.58 ± 1.61 h; 96-h cumulative excretion in feces [3, 14]: 0.016%; 96-h cumulative excretion in urine [3, 14]: 1.66%; Excretion rate of paeoniflorin (%), Urine (%), cumulative ([3]; time row 0–6 h): 0.6821 ± 0.3209%; Excretion rate of paeoniflorin (%), Feces (%), cumulative ([3]; time row 6–12 h): 0.0890 ± 0.0568%; Excretion rate of paeoniflorin (%), Urine (%), cumulative ([3]; time row 6–12 h): 1.2565 ± 0.9639%; Excretion rate of paeoniflorin (%), Feces (%), cumulative ([3]; time row 12–24 h): 0.1247 ± 0.0763%; Excretion rate of paeoniflorin (%), Urine (%), cumulative ([3]; time row 12–24 h): 11.4988 ± 6.4969%; Excretion rate of paeoniflorin (%), Feces (%), cumulative ([3]; time row 24–48 h): 0.1479 ± 0.0932%; Excretion rate of paeoniflorin (%), Urine (%), cumulative ([3]; time row 24–48 h): 28.6890 ± 13.81%; Excretion rate of paeoniflorin (%), Feces (%), cumulative ([3]; time row 48–72 h): 0.1630 ± 0.0948%; Excretion rate of paeoniflorin (%), Urine (%), cumulative ([3]; time row 48–72 h): 42.8196 ± 19.2297%; Excretion rate of paeoniflorin (%), Feces (%), cumulative ([3]; time row 72–96 h): 0.1805 ± 0.1055%; Excretion rate of paeoniflorin (%), Urine (%), cumulative ([3]; time row 72–96 h): 43.7953 ± 19.5441%; detection in SD rat brains [4]: not detected; benzoic acid production in the liver microsome system [5]: no benzoic acid produced; production of benzoic acid in liver tissue homogenate [6]: significantly lower than that in the intestinal bacteria incubation system; cumulative excretion rate in bile for 60 h [7]: 0.02%
